We go through 22 molecules from patent US10669261B2, “Heteroarylhydroxypyrimidinones as agonists of the APJ receptor” (BRISTOL-MYERS SQUIBB COMPANY, priority 2015, dated 2020).

This experiment concerns the target T1, human APJ receptor (Homo sapiens, UniProt P35414).
T1 construct: expressed in transfected cells
T1 sequence (P35414 1-380): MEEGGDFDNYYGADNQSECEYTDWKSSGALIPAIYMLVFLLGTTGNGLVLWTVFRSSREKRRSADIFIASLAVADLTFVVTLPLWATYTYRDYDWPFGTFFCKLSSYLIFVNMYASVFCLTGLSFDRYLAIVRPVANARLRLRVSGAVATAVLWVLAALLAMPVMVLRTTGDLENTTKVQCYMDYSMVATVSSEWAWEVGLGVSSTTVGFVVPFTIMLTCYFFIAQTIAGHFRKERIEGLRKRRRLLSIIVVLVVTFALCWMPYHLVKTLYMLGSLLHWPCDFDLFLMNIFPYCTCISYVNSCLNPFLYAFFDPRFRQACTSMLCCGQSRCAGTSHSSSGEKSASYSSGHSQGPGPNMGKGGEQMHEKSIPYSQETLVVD
Kind of experiment: Intracellular cAMP accumulation assay (APJ hcAMP, HTRF). In kind it is cell-based. The note with it: HEK293 cells stably expressing human APJ receptor. How it is done:
Intracellular cAMP Accumulation Assay
HEK293 cells stably expressing human APJ receptor were used to assess the activity of compounds. Cultured cells were detached and resuspended in the cAMP Homogeneous Time-Resolved Fluorescence (HTRF) assay buffer (Cisbio cat; #62AM4PEJ). The assay was performed in 384-well assay plates (Perkin-Elmer; cat #6008289) according to assay protocol provided by the manufacturer. Serial dilutions of a compound together with assay buffer containing […] IBMX and 2 μM forskolin were added to each well containing 5,000 cells and incubated for 30 minutes at room temperature. Subsequently, cAMP D2 reagent was added in the lysis buffer followed by the EuK antibody (Cisbio; cat #62AM4PEJ) and incubated for 60 min. The fluorescence emission ratio was measured using fluorometer. The intracellular cAMP concentrations (compound-stimulated inhibition of forskolin-mediated cAMP production) were calculated by extrapolation from a standard curve using known cAMP concentrations. The EC50 values were obtained by fitting the data to a sigmoidal concentration-response curve with variable slope. The maximal achievable inhibition of forskolin-induced cAMP levels (Ymax) for each compound was expressed as relative percentage of inhibition attained using pyroglutamated apelin-13 ((Pyr1)apelin-13) peptide, which was set to 100%.
The examples disclosed below were tested in the APJ in vitro assays described above and were found having human APJ cyclic AMP (hcAMP) activity. The EC50 value of each compound is presented at the end of the example description.
The biological activity of the exemplified compounds of this invention determined by the assay described above is shown at the end of each example.
On the technique in general: Cyclic AMP is a second messenger, typically raised through Gs and lowered through Gi signalling.

Setting [1] is: Table 1, read-out: hAPJ cAMP EC50 Potency range.
The mark [2] stands for this setting: inhibition of forskolin-mediated cAMP production, stated at end of example, read-out: Human APJ cAMP Potency Range.

SMILES strings stand for the structures. Where two headings read alike, the source gives them in different places.

As for `COc1cccc(OC)c1-n1c(CCC2CC2)nc(=O)c(-c2nnc(Cc3ccc(Cl)cc3)o2)c1O` [Example 45, 5-{5-[(4-chlorophenyl)methyl]-1,3,4-oxadiazol-2-yl}-2-(2-cyclopropylethyl)-1-(2,6-dimethoxyphenyl)-6-hydroxy-1,4-dihydropyrimidin-4-one], under setting [1], the EC50 is 0.01 to 10 nM. Still for that read-out and setting: with `COc1cccc(OC)c1-n1c(CCC2CC2)nc(=O)c(-c2nnc(Cn3ccccc3=O)o2)c1O` [Example 46, 2-(2-cyclopropylethyl)-1-(2,6-dimethoxyphenyl)-6-hydroxy-5-{5-[(2-oxo-1,2-dihydropyridin-1-yl)methyl]-1,3,4-oxadiazol-2-yl}-1,4-dihydropyrimidin-4-one] the figure was 0.01 to 10 nM; with `COc1cccc(OC)c1-n1c(CCC2CC2)nc(=O)c(-c2nnc(CN3CCOCC3=O)o2)c1O` [Example 47, 4-({5-[2-(2-cyclopropylethyl)-1-(2,6-dimethoxyphenyl)-6-hydroxy-4-oxo-1,4-dihydropyrimidin-5-yl]-1,3,4-oxadiazol-2-yl}methyl)morpholin-3-one], 0.01 to 10 nM.

As for `[2H]C([2H])([2H])Oc1cccc(OC([2H])([2H])[2H])c1-n1c(CCCC)nc(=O)c(-c2nnc(Cc3noc4ccccc34)o2)c1O` [Example 48, 5-(5-(Benzo[d]isoxazol-3-ylmethyl)-1,3,4-oxadiazol-2-yl)-2-butyl-1-(2,6-di[^2H3]methoxyphenyl)-6-hydroxypyrimidin-4(1H)-one], under setting [2], the EC50 lay within 0.01 to 10 nM. With `[2H]C([2H])([2H])Oc1cccc(OC([2H])([2H])[2H])c1-n1c(CCCC)nc(=O)c(-c2nnc(Cc3ccc(Cl)cc3)o2)c1O` [Example 49, 1-[2,6-bis(^2H3)methoxyphenyl]-2-butyl-5-{5-[(4-chlorophenyl)methyl]-1,3,4-oxadiazol-2-yl}-6-hydroxy-1,4-dihydropyrimidin-4-one], the EC50 under setting [1] lay in the range of 0.01 to 10 nM.

`[2H]C([2H])([2H])Oc1cccc(OC([2H])([2H])[2H])c1-n1c(COCC)nc(=O)c(-c2nnc(Cc3noc4ccccc34)o2)c1O` [Example 50, 5-[5-(1,2-benzoxazol-3-ylmethyl)-1,3,4-oxadiazol-2-yl]-1-[2,6-bis(^2H3)methoxyphenyl]-2-(ethoxymethyl)-6-hydroxy-1,4-dihydropyrimidin-4-one]: the EC50 under setting [1] was in the range of 0.01 to 10 nM. Regarding `[2H]C([2H])([2H])Oc1cccc(OC([2H])([2H])[2H])c1-n1c(COCC)nc(=O)c(-c2nnc(Cc3ccc(Cl)cc3)o2)c1O` [Example 51, 1-[2,6-bis(^2H3)methoxyphenyl]-5-{5-[(4-chlorophenyl)methyl]-1,3,4-oxadiazol-2-yl}-2-(ethoxymethyl)-6-hydroxy-1,4-dihydropyrimidin-4-one], the EC50 under setting [1] lay within 0.01 to 10 nM.

`CCN(CC)C(=O)Cc1nnc(-c2c(O)n(-c3c(OC)cccc3OC)c(CCC3CC3)nc2=O)o1` [Example 52, 2-(5-(2-(2-Cyclopropylethyl)-1-(2,6-dimethoxyphenyl)-6-hydroxy-4-oxo-1,4-dihydropyrimidin-5-yl)-1,3,4-oxadiazol-2-yl)-N,N-diethylacetamide]: the EC50 under setting [2] lay in the range of 0.01 to 10 nM. The same measure, in the same setting: under `COc1cccc(OC)c1-n1c(CCC2CC2)nc(=O)c(-c2nnc(CN(C)C(=O)c3ccccn3)o2)c1O` [Example 53, N-((5-(2-(2-cyclopropylethyl)-1-(2,6-dimethoxyphenyl)-6-hydroxy-4-oxo-1,4-dihydropyrimidin-5-yl)-1,3,4-oxadiazol-2-yl)methyl)-N-methylpicolinamide] stands 0.01 to 10 nM. Take `COc1cccc(OC)c1-n1c(CCC2CC2)nc(=O)c(-c2nnc(CN(C)C(=O)c3ccccn3)o2)c1O` [Example 54, N-({5-[2-(2-cyclopropylethyl)-1-(2,6-dimethoxyphenyl)-6-hydroxy-4-oxo-1,4-dihydropyrimidin-5-yl]-1,3,4-oxadiazol-2-yl}methyl)-N-methylpyridine-2-carboxamide]: the EC50 under setting [1] was in the range of 0.01 to 10 nM. For the molecule `COc1cccc(OC)c1-n1c(CCC2CC2)nc(=O)c(-c2nnc(CNC(=O)c3cccc(Cl)c3)o2)c1O` [Example 55, 3-chloro-N-({5-[2-(2-cyclopropylethyl)-1-(2,6-dimethoxyphenyl)-6-hydroxy-4-oxo-1,4-dihydropyrimidin-5-yl]-1,3,4-oxadiazol-2-yl}methyl)benzamide], under setting [1], the EC50 is 0.01 to 10 nM. Same read-out and setting: with `COc1cccc(OC)c1-n1c(CCC2CC2)nc(=O)c(-c2nnc(CNC(=O)c3cccnc3)o2)c1O` [Example 56, N-({5-[2-(2-cyclopropylethyl)-1-(2,6-dimethoxyphenyl)-6-hydroxy-4-oxo-1,4-dihydropyrimidin-5-yl]-1,3,4-oxadiazol-2-yl}methyl)pyridine-3-carboxamide] the figure was 0.01 to 10 nM; with `COc1cccc(OC)c1-n1c(CCC2CC2)nc(=O)c(-c2nnc(CNC(=O)c3ccccc3)o2)c1O` [Example 57, N-({5-[2-(2-cyclopropylethyl)-1-(2,6-dimethoxyphenyl)-6-hydroxy-4-oxo-1,4-dihydropyrimidin-5-yl]-1,3,4-oxadiazol-2-yl}methyl)benzamide], 0.01 to 10 nM; with `COc1cccc(OC)c1-n1c(CCC2CC2)nc(=O)c(-c2nnc(CNC(=O)c3ccccn3)o2)c1O` [Example 58, N-({5-[2-(2-cyclopropylethyl)-1-(2,6-dimethoxyphenyl)-6-hydroxy-4-oxo-1,4-dihydropyrimidin-5-yl]-1,3,4-oxadiazol-2-yl}methyl)pyridine-2-carboxamide], 0.01 to 10 nM. As for `COc1cccc(OC)c1-n1c(CCC2CC2)nc(=O)c(-c2nnc(Cc3ccc(Cl)cn3)o2)c1O` [Example 59, 5-{5-[(5-chloropyridin-2-yl)methyl]-1,3,4-oxadiazol-2-yl}-2-(2-cyclopropylethyl)-1-(2,6-dimethoxyphenyl)-6-hydroxy-1,4-dihydropyrimidin-4-one], the EC50 under setting [1] lay within 0.01 to 10 nM. In the case of `COc1cccc(OC)c1-n1c(COC(C)C)nc(=O)c(-c2nnc(Cc3ccc(Cl)cc3F)o2)c1O` [Example 60, 5-{5-[(4-chloro-2-fluorophenyl)methyl]-1,3,4-oxadiazol-2-yl}-1-(2,6-dimethoxyphenyl)-6-hydroxy-2-[(propan-2-yloxy)methyl]-1,4-dihydropyrimidin-4-one], the EC50 under setting [1] fell in the range of 0.01 to 10 nM.

`COc1cccc(OC)c1-n1c(CCC2CC2)nc(=O)c(-c2nnc(Cc3ccc(F)cn3)o2)c1O` [Example 61, 2-(2-cyclopropylethyl)-1-(2,6-dimethoxyphenyl)-5-{5-[(5-fluoropyridin-2-yl)methyl]-1,3,4-oxadiazol-2-yl}-6-hydroxy-1,4-dihydropyrimidin-4-one]: the EC50 under setting [1] was in the range of 0.01 to 10 nM. `COc1cccc(OC)c1-n1c(C2CCCC2)nc(=O)c(-c2nnc(Cn3ccccc3=O)o2)c1O` [Example 62, 2-cyclopentyl-1-(2,6-dimethoxyphenyl)-6-hydroxy-5-{5-[(2-oxo-1,2-dihydropyridin-1-yl)methyl]-1,3,4-oxadiazol-2-yl}-1,4-dihydropyrimidin-4-one]: under setting [1], the EC50 was in the range of 0.01 to 10 nM.

On to `COc1cccc(OC)c1-n1c(C2CCCC2)nc(=O)c(-c2nnc(Cc3ccc(Cl)nc3)o2)c1O` [Example 63, 5-{5-[(6-chloropyridin-3-yl)methyl]-1,3,4-oxadiazol-2-yl}-2-cyclopentyl-1-(2,6-dimethoxyphenyl)-6-hydroxy-1,4-dihydropyrimidin-4-one], for which the EC50 under setting [1] lay in the range of 0.01 to 10 nM. As to `COc1cccc(OC)c1-n1c(C2CCCC2)nc(=O)c(-c2nnc(CN3CCCC3=O)o2)c1O` [Example 64, 2-cyclopentyl-1-(2,6-dimethoxyphenyl)-6-hydroxy-5-{5-[(2-oxopyrrolidin-1-yl)methyl]-1,3,4-oxadiazol-2-yl}-1,4-dihydropyrimidin-4-one], the EC50 under setting [1] is 0.01 to 10 nM. Regarding `COc1cccc(OC)c1-n1c(C2CCCC2)nc(=O)c(-c2nnc(Cc3csc(C)n3)o2)c1O` [Example 65, 2-cyclopentyl-1-(2,6-dimethoxyphenyl)-6-hydroxy-5-{5-[(2-methyl-1,3-thiazol-4-yl)methyl]-1,3,4-oxadiazol-2-yl}-1,4-dihydropyrimidin-4-one], the EC50 under setting [1] is 0.01 to 10 nM.

For `COc1cccc(OC)c1-n1c(C2CCCC2)nc(=O)c(-c2nnc(Cc3ccc(Cl)cn3)o2)c1O` [Example 66, 5-{5-[(5-chloropyridin-2-yl)methyl]-1,3,4-oxadiazol-2-yl}-2-cyclopentyl-1-(2,6-dimethoxyphenyl)-6-hydroxy-1,4-dihydropyrimidin-4-one], the EC50 under setting [1] fell in the range of 0.01 to 10 nM.
